# From US11708376B2 (VIRGINIA TECH INTELLECTUAL PROPERTIES, INC., priority 2018, dated 2023)
# pEC50: −log10 of the molar value.
# Test system: whole cells (NMuLi, C2Cl2, and L6 cells, isolated cardiomyocytes, human primary fibroblasts)
# Test: Oxygen consumption rate (OCR) in whole cells, Seahorse XF-24 Flux Analyzer
# Type: cell-based
# Conditions: cell type for Table 1 not stated, read-out: OCR Activity (increase in OCR), binned EC50
# Description: Biological activities of the compounds synthesized is determined by determining increase in oxygen consumption rate (OCR).
# Oxygen consumption rate (OCR) in whole cells is measured in general accordance with the method of Kenwood B M et al. (Mol. Met. (2014) 3: 114-123).
# OCR is measured using a Seahorse XF-24 Flux Analyzer (Seahorse Biosciences, North Billerica, Mass.). NMuLi, C2Cl2, and L6 cells are seeded in a Seahorse 24-well tissue culture plate at a density of 3.5×10^4 cells/well, isolated cardiomyocytes at a density of 4×10^4 cells/well, and human primary fibroblasts at a density of 1.1×10^4 cells/well. The cells are then allowed to adhere for 24 h. Prior to the assay, the media is changed to unbuffered DMEM containing pyruvate and glutamine (Gibco #12800-017, pH=7.4 at 37° C.) and the cells are equilibrated for 30 mins at 37° C. Compounds are injected during the assay and OCR is measured using 2 min measurement periods.
# 2-3 wells are used per condition and averaged over three plates (n=6-9). Statistical significance is determined by two-way ANOVA with Bonfenoni's posttest.
# Activities are reported as binned EC50 values: A=5 μM or less; B=>5 to 20 μM; C=over 20 μM; NA=no effect.
row,Structure (SMILES),pEC50
1,"COc1nc2[nH]c(C(F)(F)F)nc2nc1Nc1ccc(OC(F)(F)F)cc1 [Compound 2-1, 6-methoxy-N-(4-(trifluoromethoxy)phenyl)-2-(trifluoromethyl)-1H-imidazo[4,5-b]pyrazin-5-amine]",< 4.70
2,"CCCCc1ccc(Nc2nc3nc(C(F)(F)F)[nH]c3nc2OC)cc1 [Compound 2-2, 6-methoxy-N-(4-(N-butyl)phenyl)-2-(trifluoromethyl)-1H-imidazo[4,5-b]pyrazin-5-amine]",4.70 to 5.30
3,"COc1nc2[nH]c(C(F)(F)F)nc2nc1Nc1cc(C(F)(F)F)ccc1F [Compound 2-3, 6-methoxy-N-(2-fluoro-5-(trifluoromethyl)phenyl)-2-(trifluoromethyl)-1H-imidazo[4,5-b]pyrazin-5-amine]",< 4.70
4,"COc1nc2[nH]c(C(F)(F)F)nc2nc1Nc1cccc(OC(F)(F)F)c1 [Compound 2-4, 6-methoxy-N-(3-(trifluoromethoxy)phenyl)-2-(trifluoromethyl)-1H-imidazo[4,5-b]pyrazin-5-amine]",4.70 to 5.30
5,"COc1nc2[nH]c(C(F)(F)F)nc2nc1Nc1cc(C(F)(F)F)ccc1C [Compound 2-5, 6-methoxy-N-(2-methyl-5-(trifluoromethyl)phenyl)-2-(trifluoromethyl)-1H-imidazo[4,5-b]pyrazin-5-amine]",4.70 to 5.30
6,"COc1nc2[nH]c(C(F)(F)F)nc2nc1Nc1cccc(C(F)(F)F)c1F [Compound 2-6, 6-methoxy-N-(2-fluoro-3-(trifluoromethyl)phenyl)-2-(trifluoromethyl)-1H-imidazo[4,5-b]pyrazin-5-amine]",≥ 5.30
7,"COc1nc2[nH]c(C(F)(F)F)nc2nc1Nc1cc(C(F)(F)F)cc(C(F)(F)F)c1 [Compound 2-8, 6-methoxy-(3,5-bis(trifluoromethyl)phenyl)-2-(trifluoromethyl)-1H-imidazo[4,5-b]pyrazin-5-amine]",4.70 to 5.30
8,"COc1nc2[nH]c(C(F)(F)F)nc2nc1Nc1ccccc1F [Compound 2-9, 6-methoxy-(2-fluorophenyl)-2-(trifluoromethyl)-1H-imidazo[4,5-b]pyrazin-5-amine]",4.70 to 5.30
9,"COc1nc2[nH]c(C(F)(F)F)nc2nc1Nc1ccc(OC(F)(F)F)c(F)c1 [Compound 2-13, 6-methoxy-N-(3-fluoro-4-(trifluoromethoxy)phenyl)-2-(trifluoromethyl)-1H-imidazo[4,5-b]pyrazin-5-amine]",4.70 to 5.30
10,"COc1nc2[nH]c(C(F)(F)F)nc2nc1Nc1ccc(C(F)(F)F)cc1F [Compound 2-14, 6-methoxy-N-(2-fluoro-4-(trifluoromethyl)phenyl)-2-(trifluoromethyl)-1H-imidazo[4,5-b]pyrazin-5-amine]",≥ 5.30
11,"COc1nc2[nH]c(C(F)(F)F)nc2nc1Nc1cc(F)cc(F)c1 [Compound 2-15, 6-methoxy-N-(3,5-difluorophenyl)-2-(trifluoromethyl)-1H-imidazo[4,5-b]pyrazin-5-amine]",< 4.70
12,"COc1nc2[nH]c(C(F)(F)F)nc2nc1Nc1cccc(F)c1F [Compound 2-16, 6-methoxy-N-(2,3-difluorophenyl)-2-(trifluoromethyl)-1H-imidazo[4,5-b]pyrazin-5-amine]",4.70 to 5.30
13,COc1nc2[nH]c(C(F)(F)F)nc2nc1Nc1ccccc1C(F)(F)F [Compound 2-17],≥ 5.30
14,"COc1nc2[nH]c(C(F)(F)F)nc2nc1Nc1ccc(-c2ccccc2)cc1 [Compound 2-18, N-([1,1′-biphenyl]-4-yl)-6-methoxy-2-(trifluoromethyl)-1H-imidazo[4,5-b]pyrazin-5-amine]",< 4.70
15,"COc1nc2[nH]c(C(F)(F)F)nc2nc1Nc1ccc(C(C)(C)C)cc1 [Compound 2-19, 6-methoxy-N-(4-(tert-butyl)phenyl)-2-(trifluoromethyl)-1H-imidazo[4,5-b]pyrazin-5-amine]",4.70 to 5.30
16,"COc1nc2[nH]c(C(F)(F)F)nc2nc1Nc1ccc2ccccc2c1 [Compound 2-20, 6-methoxy-N-(naphthalen-2-yl)-2-(trifluoromethyl)-1H-imidazo[4,5-b]pyrazin-5-amine]",4.70 to 5.30
17,"COc1nc2[nH]c(C(F)(F)F)nc2nc1Nc1ccc(C(F)(F)F)cc1 [Compound 2-22, 6-methoxy-N-(4-(trifluoromethyl)phenyl)-2-(trifluoromethyl)-1H-imidazo[4,5-b]pyrazin-5-amine]",4.70 to 5.30
18,"COc1nc2[nH]c(C(F)(F)F)nc2nc1Nc1ccc(C(F)(F)F)c(F)c1 [Compound 2-23, 6-methoxy-N-(3-fluoro-4-(trifluoromethyl)phenyl)-2-(trifluoromethyl)-1H-imidazo[4,5-b]pyrazin-5-amine]",< 4.70

row,Structure (SMILES),pEC50
1,"COc1nc2[nH]c(C(F)(F)F)nc2nc1Nc1ccc(Cl)cc1 [Compound 2-26, 6-methoxy-N-(4-chlorophenyl)-2-(trifluoromethyl)-1H-imidazo[4,5-b]pyrazin-5-amine]",4.70 to 5.30
2,"COc1nc2[nH]c(C(F)(F)F)nc2nc1Nc1ccc(I)cc1 [Compound 2-30, 6-methoxy-N-(4-iodophenyl)-2-(trifluoromethyl)-1H-imidazo[4,5-b]pyrazin-5-amine]",4.70 to 5.30
3,"COc1nc2[nH]c(C(F)(F)F)nc2nc1Nc1cccc(I)c1 [Compound 2-31, 6-methoxy-N-(3-iodophenyl)-2-(trifluoromethyl)-1H-imidazo[4,5-b]pyrazin-5-amine]",4.70 to 5.30
4,"COc1nc2[nH]c(C(F)(F)F)nc2nc1Nc1cccc(C(F)(F)F)c1 [Compound 2-32, 6-methoxy-N-(3-(trifluoromethyl)phenyl)-2-(trifluoromethyl)-1H-imidazo[4,5-b]pyrazin-5-amine]",4.70 to 5.30
5,"COc1nc2[nH]c(C(F)(F)F)nc2nc1Nc1ccc(C(C)(C)C)cc1F [Compound 2-33, 6-methoxy-N-(2-fluoro-4-(tert-butyl)phenyl)-2-(trifluoromethyl)-1H-imidazo[4,5-b]pyrazin-5-amine]",4.70 to 5.30
6,COc1nc2[nH]c(C(F)(F)C(F)(F)F)nc2nc1Nc1cccc(C(F)(F)F)c1F [Compound 2-34],4.70 to 5.30
7,"CCCCOc1nc2[nH]c(C(F)(F)F)nc2nc1Nc1ccc(OC(F)(F)F)cc1 [Compound 2-35, 6-butoxy-N-(4-(trifluoromethoxy)phenyl)-2-(trifluoromethyl)-1H-imidazo[4,5-b]pyrazin-5-amine]",< 4.70
8,"FC(F)(F)COc1nc2[nH]c(C(F)(F)F)nc2nc1Nc1ccc(OC(F)(F)F)cc1 [Compound 2-36, 6-(2,2,2-trifluoroethoxy)-N-(4-(trifluoromethoxy)phenyl)-2-(trifluoromethyl)-1H-imidazo[4,5-b]pyrazin-5-amine]",≥ 5.30
9,"CCOc1nc2[nH]c(C(F)(F)F)nc2nc1Nc1ccc(OC(F)(F)F)cc1 [Compound 2-37, 6-ethoxy-N-(4-(trifluoromethoxy)phenyl)-2-(trifluoromethyl)-1H-imidazo[4,5-b]pyrazin-5-amine]",< 4.70
10,"CCOc1nc2[nH]c(C(F)(F)F)nc2nc1Nc1ccc(OC(F)(F)F)cc1F [Compound 2-38, 6-ethoxy-N-(2-fluoro-4-(trifluoromethoxy)phenyl)-2-(trifluoromethyl)-1H-imidazo[4,5-b]pyrazin-5-amine]",4.70 to 5.30
11,"CCCOc1nc2[nH]c(C(F)(F)F)nc2nc1Nc1ccc(OC(F)(F)F)cc1F [Compound 2-39, 6-propoxy-N-(2-fluoro-4-(trifluoromethoxy)phenyl)-2-(trifluoromethyl)-1H-imidazo[4,5-b]pyrazin-5-amine]",4.70 to 5.30
12,"COc1nc2[nH]c(C(F)(F)F)nc2nc1Oc1ccc(C(F)(F)F)cc1 [Compound 2-40, 6-methoxy-2-(trifluoromethyl)-5-(4-(trifluoromethyl)phenoxy)-1H-imidazo[4,5-b]pyrazine]",≥ 5.30
13,"COc1nc2[nH]c(C(F)(F)F)nc2nc1Nc1ccc(OC(F)(F)F)cc1I [Compound 2-41, N-(2-iodo-4-(trifluoromethoxy)phenyl)-6-methoxy-2-(trifluoromethyl)-1H-imidazo[4,5-b]pyrazin-5-amine]",4.70 to 5.30
14,"COc1nc2[nH]c(C(F)(F)F)nc2nc1Nc1ccc(OC(F)(F)F)cc1Cl [Compound 2-42, N-(2-chloro-4-(trifluoromethoxy)phenyl)-6-methoxy-2-(trifluoromethyl)-1H-imidazo[4,5-b]pyrazin-5-amine]",4.70 to 5.30
15,"COc1nc2[nH]c(C(F)(F)F)nc2nc1Nc1ccc(OC(F)(F)F)c(Cl)c1 [Compound 2-43, N-(3-chloro-4-(trifluoromethoxy)phenyl)-6-methoxy-2-(trifluoromethyl)-1H-imidazo[4,5-b]pyrazin-5-amine]",< 4.70
16,"COc1nc2[nH]c(C(F)(F)F)nc2nc1Nc1ccc(OC(F)(F)F)c(Br)c1 [Compound 2-44, N-(3-bromo-4-(trifluoromethoxy)phenyl)-6-methoxy-2-(trifluoromethyl)-1H-imidazo[4,5-b]pyrazin-5-amine]",< 4.70
17,"CC(C)Oc1nc2nc(C(F)(F)F)[nH]c2nc1Nc1ccc(C(F)(F)F)cc1 [Compound 2-45, 5-isopropoxy-2-(trifluoromethyl)-N-(4-(trifluoromethyl)phenyl)-1H-imidazo[4,5-b]pyrazin-6-amine]",< 4.70
18,"Fc1ccccc1Oc1nc2nc(C(F)(F)F)[nH]c2nc1Nc1ccc(C(F)(F)F)cc1 [Compound 2-46, 5-(2-fluorophenoxy)-2-(trifluoromethyl)-N-(4-(trifluoromethyl)phenyl)-1H-imidazo[4,5-b]pyrazin-6-amine]",4.70 to 5.30
